Experimental data taken from patent US20020098210A1, “FORMULATIONS AND METHODS FOR REDUCING SKIN IRRITATION” (priority 1997, published 2002).
Read-outs that look alike come from different tables or passages of the source.

What was measured:
[1] = system: skin irritation induced by topical irritants (lactic acid, glycolic acid, capryloyl salicylic acid, benzoyl peroxide); test: Human clinical trials of anti-irritant activity (general statements); format: in vivo; settings: topical application
Protocol: The objective of the clinical trials was to determine whether and to what extent topical formulations of the calcium cation reduced or prevented skin irritation caused by certain severe skin irritants, including particularly lactic acid and glycolic acid (which are hydroxy acids), capryloyl salicylic acid (a β-hydroxy acid ester) and capsaicin (an isolate from cayenne and paprika known for its skin-irritating properties). The trials were conducted in a double blind, randomized, vehicle-controlled manner. Various formulations of the invention were tested in over 460 people.

[2] = system: lactic acid skin irritation; test: Lactic acid irritation trial, time zero test (anti-irritant applied simultaneously with irritant); format: in vivo, human; settings: time zero tests; for Percent Inhibition (average inhibition of cumulative irritation): cation salt 250 mM, lactic acid irritant, average over trials; for Percent Inhibition: representative panels, 250 mM, vehicle 10% EtOH
Source text: (§1) The following scaled scores were used for sensory assessment: […]

[3] = system: lactic acid skin irritation; test: Lactic acid irritation trial, pretreatment test (anti-irritant applied 15 minutes prior to irritant); format: in vivo, human; settings: for Percent Inhibition (average inhibition of cumulative irritation) / Percent Inhibition: pretreatment tests; for Percent Inhibition (average inhibition of cumulative irritation): cation salt 250 mM, lactic acid irritant, average over trials; for Percent Inhibition: representative panels, 250 mM, vehicle Visible Difference; for inhibition of skin irritation (in words): salts in Elizabeth Arden Visible Difference Refining Toner, various amounts
Source text: as §1

[4] = system: lactic acid skin irritation
Protocol: Tests were conducted in multiple panels of from 7 to 12 subjects each. Subjects were instructed not to wear any makeup or facial lotions to the clinic the day of testing. The subjects were instructed to wash their face with Ivory bar soap in the clinic prior to application of test solutions.
Lactic acid skin-irritant compositions were formulated in an appropriate vehicle prior to application to the skin of the subjects.
Controls were performed by applying corresponding formulation(s) (pretreatment and/or skin-irritant composition) with an equimolar amount of sodium chloride to a contralateral portion of the subject's skin. Typically, the test materials were applied to the face of the subject.
All test solutions (including controls) were applied in a double blind, randomized fashion using the prepared solutions as previously placed in coded vial designated for use on either the right or left side of the face (or other test area). Solutions were typically applied using a cotton swab (six strokes) or sponge applicator to the face and cheek area extending from the midline of the nose over to the center of the cheek and from the cheek bone down to the jaw line. Application was made first to the right side and then to the left.
Sensory assessment scores were recorded for each treated side of the subject's skin every minute for 15 minutes or until three consecutive scores of “zero” irritation were obtained. The following scaled scores were used for sensory assessment:
Symptom scores were cumulated, separately for the cation-treated and control-treated areas, for each individual and also for the panel as a whole. Individuals not reporting a cumulative score of at least “7” on at least one treatment area were excluded (in a blinded fashion) from further analysis in order to ascertain anti-irritant efficacy with respect to the more severely-susceptible test subjects. From a practical standpoint, scores of “0” and “1” on the above scale would be considered highly desirable for a commercial product because such a response would likely not result in a consumer ceasing to use a product.

CC(=O)[O-].CC(=O)[O-].[Ca+2] [Calcium acetate]
anti-irritant activity (in words) [1]: particularly active as anti-irritants | Percent Inhibition (average inhibition of cumulative irritation) [2]: 60% | Percent Inhibition [2]: 65% | Percent Inhibition (average inhibition of cumulative irritation) [3]: 40% | Percent Inhibition [3]: 30% | inhibition of skin irritation (in words) [3]: effective to inhibit skin irritation

[Ca+2].[Cl-].[Cl-] [Calcium chloride]
anti-irritant activity (in words) [1]: particularly active as anti-irritants | Percent Inhibition (average inhibition of cumulative irritation) [2]: 65% | Percent Inhibition [2]: 61% | Percent Inhibition (average inhibition of cumulative irritation) [3]: 35% | Percent Inhibition [3]: 35% | inhibition of skin irritation (in words) [3]: effective to inhibit skin irritation

O=[N+]([O-])[O-].O=[N+]([O-])[O-].[Ca+2] [Calcium nitrate]
anti-irritant activity (in words) [1]: particularly active as anti-irritants | Percent Inhibition (cumulative irritation inhibition) ([4]; calcium nitrate 31 mM): 26% | Percent Inhibition (cumulative irritation inhibition) ([4]; calcium nitrate 62 mM): 52% | Percent Inhibition (cumulative irritation inhibition) ([4]; calcium nitrate 125 mM): 83% | Percent Inhibition (cumulative irritation inhibition) ([4]; calcium nitrate 250 mM): 82% | Percent Inhibition (cumulative irritation inhibition) ([4]; calcium nitrate 500 mM): 67% | Percent Inhibition (average inhibition of cumulative irritation) [2]: 90% | Percent Inhibition [2]: 85% | Percent Inhibition (average inhibition of cumulative irritation) [3]: 45% | Percent Inhibition [3]: 44% | inhibition of skin irritation (in words) [3]: effective to inhibit skin irritation

[Ca+2] [calcium cation, calcium(II)]
anti-irritant activity (in words) [1]: significant and reproducible anti-irritant effects | anti-irritant activity (in words) ([1]; listed as calcium(II) (Ca^2+)): effective

Calcium gluconate
anti-irritant activity (in words) [1]: particularly active as anti-irritants | Percent Inhibition (average inhibition of cumulative irritation) [2]: 40% | Percent Inhibition [2]: 49% | Percent Inhibition [3]: 40%
